In ChEMBL document CHEMBL1126960 (J Med Chem, 1993) one finds Ki and Concentration (ng (g of tissue)-1) data, which are given here for 8 compounds.

Assay [1] deals with Sigma 2 receptor. As to the kind of experiment: Tested for [3H]DTG binding to sigma-2 receptor in NG108-15 membrane. Type of assay: cell membranes.
Assay [2] is filed under the species Rattus norvegicus. To be noted: Frontal cortex.
Description: Effect of compound (2 mg/kg ip) on the concentration of 5-HIAA in rat frontal cortex
Assay [3] is filed under the species Rattus norvegicus.
Description: Effect of compound (2 mg/kg ip) on the concentration of 5-HIAA in rat mesolimbic region
The species entered for assay [4] is Rattus norvegicus. Conditions: Striatum.
Description: Effect of compound (2 mg/kg ip) on the concentration of 5-HIAA in rat striatum
For assay [5], the species on record is Rattus norvegicus. To be noted: Frontal cortex. This is another data set of the same source.
Description: Effect of compound (2 mg/kg ip) on the concentration of 5-HT in rat frontal cortex
Assay [6] is filed under the species Rattus norvegicus. This is another data set of the same source.
Description: Effect of compound (2 mg/kg ip) on the concentration of 5-HT in rat mesolimbic region
For assay [7], the species on record is Rattus norvegicus. Conditions: Striatum. This is another data set of the same source.
Description: Effect of compound (2 mg/kg ip) on the concentration of 5-HT in rat striatum
Assay [8] is filed under the species Rattus norvegicus. Conditions: Frontal cortex. This is another data set of the same source.
Description: Effect of compound (2 mg/kg ip) on the concentration of DA in rat frontal cortex
The species entered for assay [9] is Rattus norvegicus. To be noted: Striatum. This is another data set of the same source.
Description: Effect of compound (2 mg/kg ip) on the concentration of DA in rat striatum
The species named for assay [10] is Rattus norvegicus. To be noted: Frontal cortex. This is another data set of the same source.
Description: Effect of compound (2 mg/kg ip) on the concentration of DOPAC in rat frontal cortex
The species named for assay [11] is Rattus norvegicus. The source holds these as a separate data set.
Description: Effect of compound (2 mg/kg ip) on the concentration of DOPAC in rat mesolimbic region
For assay [12], the species on record is Rattus norvegicus. Conditions: Striatum. The source holds these as a separate data set.
Description: Effect of compound (2 mg/kg ip) on the concentration of DOPAC in rat striatum
Assay [13] is filed under the species Rattus norvegicus. To be noted: Frontal cortex. The source holds these as a separate data set.
Description: Effect of compound (2 mg/kg ip) on the concentration of DOPAC/DA in rat frontal cortex
The species entered for assay [14] is Rattus norvegicus. The source holds these as a separate data set.
Description: Effect of compound (2 mg/kg ip) on the concentration of DOPAC/DA in rat mesolimbic region
Assay [15] is filed under the species Rattus norvegicus. To be noted: Striatum. This is another data set of the same source.
Description: Effect of compound (2 mg/kg ip) on the concentration of DOPAC/DA in rat striatum
The species entered for assay [16] is Rattus norvegicus. Conditions: Frontal cortex. This is another data set of the same source.
Description: Effect of compound (2 mg/kg ip) on the concentration of HVA in rat frontal cortex
The species entered for assay [17] is Rattus norvegicus. The source holds these as a separate data set.
Description: Effect of compound (2 mg/kg ip) on the concentration of HVA in rat mesolimbic region
The species named for assay [18] is Rattus norvegicus. To be noted: Striatum. This is another data set of the same source.
Description: Effect of compound (2 mg/kg ip) on the concentration of HVA in rat striatum
The species entered for assay [19] is Rattus norvegicus. The source holds these as a separate data set.
Description: Effect of compound (2 mg/kg ip) on the concentration of DA in rat mesolimbic region
The target of another assay is D(3) dopamine receptor (Homo sapiens, UniProt P35462). As to the kind of experiment: biochemical.
Assay [20] deals with Sigma 2 receptor. Put plainly: Tested for [3H]DTG binding to sigma-2 receptor in NG108-15 cell membranes.
In another assay the target is D(2) dopamine receptor (Homo sapiens, UniProt P14416). As to the kind of experiment: biochemical.
The species named for assay [21] is Rattus norvegicus. To be noted: Striatum. The source holds these as a separate data set.
Description: Effect of compound (0.2 mg/kg ip) on the concentration of 5-HIAA in rat striatum
The species named for assay [22] is Rattus norvegicus. Conditions: Striatum. This is another data set of the same source.
Description: Effect of compound (0.2 mg/kg ip) on the concentration of 5-HT in rat striatum
The species entered for assay [23] is Rattus norvegicus. To be noted: Frontal cortex. The source holds these as a separate data set.
Description: Effect of compound (0.2 mg/kg ip) on the concentration of DA in rat frontal cortex
The species named for assay [24] is Rattus norvegicus. This is another data set of the same source.
Description: Effect of compound (0.2 mg/kg ip) on the concentration of DA in rat mesolimbic region
For assay [25], the species on record is Rattus norvegicus. To be noted: Striatum. This is another data set of the same source.
Description: Effect of compound (0.2 mg/kg ip) on the concentration of DA in rat striatum
The species entered for assay [26] is Rattus norvegicus. Conditions: Frontal cortex. The source holds these as a separate data set.
Description: Effect of compound (0.2 mg/kg ip) on the concentration of DOPAC in rat frontal cortex
For assay [27], the species on record is Rattus norvegicus. The source holds these as a separate data set.
Description: Effect of compound (0.2 mg/kg ip) on the concentration of DOPAC in rat mesolimbic region
The species entered for assay [28] is Rattus norvegicus. To be noted: Striatum. This is another data set of the same source.
Description: Effect of compound (0.2 mg/kg ip) on the concentration of DOPAC in rat striatum
For assay [29], the species on record is Rattus norvegicus. The source holds these as a separate data set.
Description: Effect of compound (0.2 mg/kg ip) on the concentration of DOPAC/DA in rat mesolimbic region
For assay [30], the species on record is Rattus norvegicus. To be noted: Striatum. This is another data set of the same source.
Description: Effect of compound (0.2 mg/kg ip) on the concentration of DOPAC/DA in rat striatum
For assay [31], the species on record is Rattus norvegicus. Conditions: Frontal cortex. The source holds these as a separate data set.
Description: Effect of compound (0.2 mg/kg ip) on the concentration of HVA in rat frontal cortex
Assay [32] is filed under the species Rattus norvegicus. This is another data set of the same source.
Description: Effect of compound (0.2 mg/kg ip) on the concentration of HVA in rat mesolimbic region
For assay [33], the species on record is Rattus norvegicus. To be noted: Striatum. This is another data set of the same source.
Description: Effect of compound (0.2 mg/kg ip) on the concentration of HVA in rat striatum
Assay [34] is filed under the species Rattus norvegicus. Conditions: Frontal cortex. The source holds these as a separate data set.
Description: Effect of compound on (0.2 mg/kg ip) the concentration of 5-HIAA in rat frontal cortex
For assay [35], the species on record is Rattus norvegicus. This is another data set of the same source.
Description: Effect of compound on (0.2 mg/kg ip) the concentration of 5-HIAA in rat mesolimbic region
Assay [36] is filed under the species Rattus norvegicus. To be noted: Frontal cortex. The source holds these as a separate data set.
Description: Effect of compound on (0.2 mg/kg ip) the concentration of 5-HT in rat frontal cortex
For assay [37], the species on record is Rattus norvegicus. This is another data set of the same source.
Description: Effect of compound on (0.2 mg/kg ip) the concentration of 5-HT in rat mesolimbic region
The species named for assay [38] is Rattus norvegicus. Conditions: Frontal cortex. The source holds these as a separate data set.
Description: Effect of compound on (0.2 mg/kg ip) the concentration of DOPAC/DA in rat frontal cortex

Usually pKi stands for the Ki on a negative log10 scale, so that one unit is a factor of ten.

pKi: −log10 of the molar value. Where only a bound is given, the exact number is not on record here.

D(3) dopamine receptor, sequence (P35462 whole entry): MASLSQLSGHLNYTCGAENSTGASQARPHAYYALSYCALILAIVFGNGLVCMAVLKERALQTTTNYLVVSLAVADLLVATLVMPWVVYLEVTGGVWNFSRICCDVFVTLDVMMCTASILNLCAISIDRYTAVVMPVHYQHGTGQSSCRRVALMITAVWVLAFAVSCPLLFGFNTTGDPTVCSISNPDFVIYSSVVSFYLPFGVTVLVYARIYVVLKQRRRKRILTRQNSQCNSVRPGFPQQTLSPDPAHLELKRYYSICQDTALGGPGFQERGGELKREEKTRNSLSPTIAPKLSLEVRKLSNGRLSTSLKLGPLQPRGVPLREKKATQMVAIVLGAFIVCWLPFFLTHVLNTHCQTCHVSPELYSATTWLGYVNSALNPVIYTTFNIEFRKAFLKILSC
D(2) dopamine receptor, sequence (P14416 whole entry): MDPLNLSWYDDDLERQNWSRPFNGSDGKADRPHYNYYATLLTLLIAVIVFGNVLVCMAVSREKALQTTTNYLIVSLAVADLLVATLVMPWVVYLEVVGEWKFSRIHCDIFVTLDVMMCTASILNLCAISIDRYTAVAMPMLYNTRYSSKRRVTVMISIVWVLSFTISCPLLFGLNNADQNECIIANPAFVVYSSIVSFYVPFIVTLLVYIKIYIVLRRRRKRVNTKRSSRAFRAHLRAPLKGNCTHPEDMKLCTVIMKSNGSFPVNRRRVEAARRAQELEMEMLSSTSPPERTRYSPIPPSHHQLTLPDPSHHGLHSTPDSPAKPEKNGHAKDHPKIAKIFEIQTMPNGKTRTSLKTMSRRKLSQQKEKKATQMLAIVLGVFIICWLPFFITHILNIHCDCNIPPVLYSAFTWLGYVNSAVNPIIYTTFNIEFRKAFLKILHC
Description for D(2) dopamine receptor: Displacement of [3H]spiperone from CHO-K1 cell membranes expressing human dopamine receptor D2
Description for D(3) dopamine receptor: Displacement of [3H]-spiperone from CHO-K1 cell membranes expressing human dopamine 3 receptors

With `O[C@H](CCCN1CCC(O)(c2ccc(Cl)cc2)CC1)c1ccc(F)cc1`, the pKi on Sigma 2 receptor [1] was 7.51; on D(3) dopamine receptor it was 5.89. In addition, the Concentration (ng (g of tissue)-1) came out at 172 in the assay listed under Rattus norvegicus [2]; 492 in the assay filed under Rattus norvegicus [3]; 510 in the assay listed under Rattus norvegicus [4]; 154 in the assay filed under Rattus norvegicus [5]; 627 in the assay filed under Rattus norvegicus [6]; 397 in the assay filed under Rattus norvegicus [7]. Also, the Concentration (ng (g of tissue)-1) came out at 18 in the assay filed under Rattus norvegicus [8]; 3750 in the assay filed under Rattus norvegicus [9]; 32 in the assay filed under Rattus norvegicus [10]; 1020 in the assay listed under Rattus norvegicus [11]; 2440 in the assay listed under Rattus norvegicus [12]; 1.81 in the assay listed under Rattus norvegicus [13]. Besides, the Concentration (ng (g of tissue)-1) amounted to 0.616 in the assay filed under Rattus norvegicus [14]; 0.651 in the assay filed under Rattus norvegicus [15]; 98 in the assay filed under Rattus norvegicus [16]; 641 in the assay filed under Rattus norvegicus [17]; 1780 in the assay filed under Rattus norvegicus [18]; 1660 in the assay filed under Rattus norvegicus [19].
Take `O[C@@H](CCCN1CCC(O)(c2ccc(Cl)cc2)CC1)c1ccc(F)cc1`: the pKi at Sigma 2 receptor [1] is 8.09; at D(3) dopamine receptor it was 6.48. Also, the Concentration (ng (g of tissue)-1) in the assay listed under Rattus norvegicus [2] was determined as 156; in the assay listed under Rattus norvegicus [3] it was 527; in the assay listed under Rattus norvegicus [4], 437; in the assay listed under Rattus norvegicus [5] it was 165; in the assay listed under Rattus norvegicus [6], 639; in the assay listed under Rattus norvegicus [7], 367. For the same compound, the Concentration (ng (g of tissue)-1) in the assay listed under Rattus norvegicus [8] was 19; in the assay listed under Rattus norvegicus [9], 5230; in the assay filed under Rattus norvegicus [10], 32; in the assay listed under Rattus norvegicus [11], 1310; in the assay filed under Rattus norvegicus [12], 2740; in the assay listed under Rattus norvegicus [13], 1.7. Moreover, the Concentration (ng (g of tissue)-1) turned out to be 0.588 in the assay listed under Rattus norvegicus [14]; 0.523 in the assay filed under Rattus norvegicus [15]; 80 in the assay listed under Rattus norvegicus [16]; 788 in the assay filed under Rattus norvegicus [17]; 1980 in the assay listed under Rattus norvegicus [18]; 2230 in the assay listed under Rattus norvegicus [19].
On to `O[C@@H](CCCN1CCN(c2ccccn2)CC1)c1ccc(F)cc1`, for which the results for the pKi in the assay with Sigma 2 receptor [20], at D(2) dopamine receptor and on D(3) dopamine receptor were 7.42, 7.00 and 6.90, respectively.
For the compound `O=C(CCCN1CCN(c2ccccn2)CC1)c1ccc(F)cc1` [AZAPERONE], in the assay on Sigma 2 receptor [20], the pKi was 7.29.
For `O[C@H](CCCN1CCN(c2ccccn2)CC1)c1ccc(F)cc1`, the pKi is 6.55 in the assay on Sigma 2 receptor [20], 6.39 on D(2) dopamine receptor and 6.43 at D(3) dopamine receptor.
Regarding `O=C(CCCN1CCC(O)(c2ccc(Cl)cc2)CC1)c1ccc(F)cc1`, the Concentration (ng (g of tissue)-1) is 552 in the assay filed under Rattus norvegicus [21]; 407 in the assay listed under Rattus norvegicus [22]; 27 in the assay filed under Rattus norvegicus [23]; 1680 in the assay listed under Rattus norvegicus [24]; 5140 in the assay filed under Rattus norvegicus [25]; 32 in the assay listed under Rattus norvegicus [26]. For the same compound, the Concentration (ng (g of tissue)-1) was found to be 986 in the assay listed under Rattus norvegicus [27]; 2870 in the assay listed under Rattus norvegicus [28]; 0.587 in the assay filed under Rattus norvegicus [29]; 0.558 in the assay listed under Rattus norvegicus [30]; 102 in the assay listed under Rattus norvegicus [31]; 669 in the assay filed under Rattus norvegicus [32]. Further, the Concentration (ng (g of tissue)-1) in the assay listed under Rattus norvegicus [33] worked out at 2190; in the assay filed under Rattus norvegicus [34], 180; in the assay filed under Rattus norvegicus [35] it was 648; in the assay listed under Rattus norvegicus [36] it was 160; in the assay filed under Rattus norvegicus [37], 657; in the assay listed under Rattus norvegicus [38] it was 1.18.
`O[C@H](CCCN1CCN(c2ncc(F)cn2)CC1)c1ccc(F)cc1`: the pKi in the assay with Sigma 2 receptor [20] was 5.91; at D(2) dopamine receptor, less than 5.30; at D(3) dopamine receptor, less than 5.70.
`O[C@@H](CCCN1CCN(c2ncc(F)cn2)CC1)c1ccc(F)cc1` [BMY-14802]: the pKi in the assay with Sigma 2 receptor [20] was 7.02; at D(2) dopamine receptor, 5.48; at D(3) dopamine receptor it was less than 5.70.
